{"source": "paper doi:10.1101/760033v2", "about": "(biorxiv, 2019)", "test_in_all_cases": "HTRF cAMP assay in HEK293T", "format_in_all_cases": "cell-based", "key": {"Olfr739 [1]": {"target": "T1, Olfr739 (Mus musculus, UniProt E9Q1P0)", "T1 sequence (E9Q1P0 1-309)": "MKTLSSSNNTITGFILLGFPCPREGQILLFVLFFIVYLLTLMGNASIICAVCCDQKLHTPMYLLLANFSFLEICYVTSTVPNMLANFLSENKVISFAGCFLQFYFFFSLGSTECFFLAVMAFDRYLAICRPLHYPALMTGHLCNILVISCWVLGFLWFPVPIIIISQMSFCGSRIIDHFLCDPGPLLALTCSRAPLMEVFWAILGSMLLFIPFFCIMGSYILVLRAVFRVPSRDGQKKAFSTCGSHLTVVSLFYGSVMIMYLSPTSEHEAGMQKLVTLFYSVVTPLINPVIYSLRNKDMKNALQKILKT", "conditions": "partial agonist; range printed for four receptors together"}, "Olfr739 [2]": {"target": "T1, Olfr739"}, "Olfr743": {"target": "T2, Olfr743 (Mus musculus, UniProt L7N1Y2)", "T2 sequence (L7N1Y2 1-311)": "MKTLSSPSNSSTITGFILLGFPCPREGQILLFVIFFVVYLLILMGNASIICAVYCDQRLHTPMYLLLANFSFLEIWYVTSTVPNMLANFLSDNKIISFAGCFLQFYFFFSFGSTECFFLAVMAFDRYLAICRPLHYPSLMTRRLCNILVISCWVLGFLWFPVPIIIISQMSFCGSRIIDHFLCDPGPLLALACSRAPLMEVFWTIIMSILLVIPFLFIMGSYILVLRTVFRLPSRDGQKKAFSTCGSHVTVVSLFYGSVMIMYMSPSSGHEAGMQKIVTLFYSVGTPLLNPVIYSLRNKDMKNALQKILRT"}, "Olfr748": {"target": "T3, Olfr748 (Mus musculus, UniProt E9Q9Z0)", "T3 sequence (E9Q9Z0 1-307)": "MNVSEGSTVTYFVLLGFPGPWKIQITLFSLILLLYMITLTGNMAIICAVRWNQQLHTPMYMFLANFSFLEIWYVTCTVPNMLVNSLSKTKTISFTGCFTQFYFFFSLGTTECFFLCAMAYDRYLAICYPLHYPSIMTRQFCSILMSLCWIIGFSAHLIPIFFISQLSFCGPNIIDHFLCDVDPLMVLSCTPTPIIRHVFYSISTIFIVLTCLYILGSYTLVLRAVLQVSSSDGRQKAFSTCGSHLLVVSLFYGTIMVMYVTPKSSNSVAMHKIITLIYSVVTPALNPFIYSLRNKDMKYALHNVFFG"}}}
{"compound": "COc1ccc2ccccc2c1", "note": "[compound 35, 2-methoxynaphthalene]", "values": [{"measurement": "% of the maximum indole response", "setting": "Olfr739 [1]", "value": "71-75%"}]}
{"compound": "c1ccc2[nH]ccc2c1", "note": "[compound 37, indole]", "values": [{"measurement": "EC50", "setting": "Olfr739 [2]", "value": 32, "unit": "µM"}, {"measurement": "EC50", "setting": "Olfr743", "value": 80, "unit": "nM"}, {"measurement": "EC50", "setting": "Olfr748", "value": 81, "unit": "µM"}]}
